According to article PMC6801448, “The Antioxidant and Antiproliferative Activities of 1,2,3-Triazolyl-L-Ascorbic Acid Derivatives” (International Journal of Molecular Sciences, 2019):
Where two headings read alike, the source gives them in different places.

What was measured:
[1] = test system: tested cell lines (A549, CFPAC-1, HCT-116, HeLa, HepG2, MCF-7, SW620, WI-38, HFF-1); test: MTT proliferation assay, whole tested cell panel; type: cell-based, Human; conditions: 0.01 µM to 100 µM, 72 h
Experimental: The C-6 substituted 1,2,3-triazole derivatives of L-ASA within the C5-OH group ([…], 4i, 4k−4t, and 4v) and with the C4=C5 double bond (7c−7g and 7i−7q) were evaluated against seven malignant tumor cell lines: lung adenocarcinoma (A549), ductal pancreatic adenocarcinoma (CFPAC-1), colorectal carcinoma (HCT-116), cervical carcinoma (HeLa), hepatocellular carcinoma (HepG2), breast adenocarcinoma (MCF-7), colorectal adenocarcinoma, and metastatic (SW620); as well as normal cell lines: lung fibroblasts (WI-38) and foreskin fibroblasts (HFF-1) (Table 3, Table S1, Supplementary Information). L-ASA was used as a positive control, and carboxyamidotriazole, a known antiproliferative agent that inhibits tumor cell growth, invasion, and metastasis, and 5-fluorouracil (5-FU), were used as reference compounds.
(§1) Human tumor cell lines HeLa (cervical carcinoma), SW620 (colorectal adenocarcinoma, metastatic), A549 (lung adenocarcinoma), MCF−7 (breast adenocarcinoma), CFPAC-1 (pancreatic adenocarcinoma, metastatic), HCT-116 (colorectal carcinoma), and HepG2 (hepatocellular carcinoma), and normal cell lines HFF-1 (foreskin fibroblasts) and WI-38 (immortalized human lung fibroblast), were from the US American Type Culture Collection (ATCC, Manassas, VA, USA). Cells were cultured in a liquid nutrient medium (Dulbecco’s Modified Eagle Medium, LONZA, Basel, Switzerland) supplemented with 10% fetal bovine serum (FBS, Gibco, Grand Island, NY, USA), 2 mM L-glutamine (GIBCO, Grand Island, NY, USA), 100 μg/mL penicillin, and 100 μg/mL streptomycin (LONZA, Basel, Switzerland), in an incubator (NÜVE, Ankara, Turkey), at a humid atmosphere with 5% CO2 at 37 °C. Trypsin/EDTA Solution (Lonza, Basel, Switzerland), was used for cell passaging and cell detachment.
(§2) Adherent cells were seeded on 96 well microtiter plates (Falcon, New York, NY, USA) at a seeding density of 5000 cells per well, added in 150 μL of cell suspension in a nutrient medium. 24 h after seeding, cells were treated with compound 4b–4g, 4i, 4k–4t, 4v, 7c–7g, and 7i–7q dilutions in the range of 0.01 μM to 100 μM. L-ascoric acid (Sigma Aldrich, Darmstadt, Germany) and Carboxyamidotriazole (Sigma Aldrich, Darmstadt, Germany) were used as control compounds. Incubation of the cells with the compounds were performed for 72 h in a 5% CO2, in humid atmosphere at 37 °C. After incubation, nutrient medium was removed and 40 μL of the MTT reagent ([…]-2,5-diphenyltetrazole bromide (Invitrogen, Carlsbad, CA, USA) was added to each well. 3 h after incubation, 160 μL of DMSO (VWR CHEMICALS, Radnor, PA, USA) were added to each well to dissolve the crystals of purple formazane. The absorbance was measured at 570 nm (TECAN SUNRISE Microtiter plate reader (Männedorf, Switzerland). The experimentally measured optical densities (OD) were converted to the PG (percentage of growth), using the formulas according to the protocol assumed by NIH (National Institute of Health). The IC50 values (concentration causing 50% cell growth inhibition) for each compound were calculated by regression analysis of the survival count curve of the concentrations of the tested compounds. The results were processed in Excel 2010 (Microsoft, Redmond, WA, USA).

[2] = test system: HCT-116 (colorectal carcinoma); test: MTT proliferation assay, HCT-116; type: cell-based; conditions: Homo sapiens, 72 h
Experimental: as §1, §2

[3] = test system: MCF-7 (breast adenocarcinoma); test: MTT proliferation assay, MCF-7; type: cell-based, Human; conditions: Homo sapiens, MCF7; 72 h, MTT
Experimental: as §1, §2

[4] = test system: HepG2 (hepatocellular carcinoma); test: MTT proliferation assay, HepG2; type: cell-based; conditions: Homo sapiens, 72 h
Experimental: as §1, §2

[5] = test system: A549 (lung adenocarcinoma); test: MTT proliferation assay, A549; type: cell-based; conditions: Homo sapiens, 72 h
Experimental: as §1, §2

[6] = test system: SW620 (colorectal adenocarcinoma, metastatic); test: MTT proliferation assay, SW620; type: cell-based; conditions: Homo sapiens, SW-620, 72 h
Experimental: as §1, §2

[7] = test system: HeLa (cervical carcinoma); test: MTT proliferation assay, HeLa; type: cell-based; conditions: Homo sapiens, 72 h
Experimental: as §1, §2

[8] = test system: HFF-1 (foreskin fibroblasts); test: MTT proliferation assay, HFF-1; type: cell-based; conditions: Homo sapiens, 72 h, normal foreskin fibroblasts
Experimental: as §1, §2

[9] = DPPH radical scavenging assay; type: biochemical
Experimental: Likewise, L-ASA, the 1,2,3-triazole L-ASA derivatives with free C2-OH and C3-OH groups were expected to be potent antioxidants. Therefore, they were tested as radical scavengers by reaction with the stable free radical 2,2-diphenyl-1-picrylhydrazyl (DPPH^•).
Antioxidant capacity of selected compounds was assessed by 2,2-diphenyl-1-picrylhydrazyl assay (DPPH, Sigma Aldrich, Darmstadt, Germany), in which the antioxidant activity of compounds is measured by the reaction between a stable radical of 1,1-diphenyl-2-picylhydrazil (DPPH^•) and a selected compound according to the manufacturer recommendations. Briefly, compounds 4b–4e, 4f–4h, 4k, 4l, 4o, 4p–4s, 4t, 4v, 7c–7f, 7i–7n, 7q, 7p, and 7o were tested at 0.06, 0.12, 0.18, 0.23, 0.25, and 0.28 mM. L-ascorbic acid was used as the reference compound. Absorbance was measured 5 and 10 min after incubation of the compounds with the DPPH reagent. The reduction of DPPH with selected compounds was monitored by measuring the absorbance at a wavelength of 517 nm on the monochromator (Infinite M200 PRO, TECAN, Männedorf, Switzerland).

WI-38 (lung fibroblasts) = test: MTT proliferation assay, WI-38; type: cell-based; conditions: Homo sapiens, 72 h, normal lung fibroblasts
Experimental: as §1, §2

[10] = test system: CFPAC-1 (ductal pancreatic adenocarcinoma); test: MTT proliferation assay, CFPAC-1; type: cell-based; conditions: Homo sapiens, 72 h
Experimental: as §1, §2

[11] = 5 min treatment, read-out: IC50 of DPPH• inhibition, Treatm. 5 min
[12] = 10 min treatment, read-out: IC50 of DPPH• inhibition, Treatm. 10 min

SMILES | IC50 [2] | IC50 [3] | IC50 [4] | IC50 [5] | IC50 [6] | IC50 [7] | IC50 [9, 11] | IC50 [9, 12] | IC50 [10] | melting point | antiproliferative / cytotoxic effect on the tested cell lines (in words) [1] | IC50 [8] | IC50 (WI-38 (lung fibroblasts))
NC(=O)c1nnn(Cc2cc(Cl)c(C(=O)c3ccc(Cl)cc3)c(Cl)c2)c1N [Carboxyamidotriazole, carboxyamidotriazole, reference compound] | 19.9 µM | 14.7 µM | 40.1 µM | 51.6 µM | 41.3 µM | 31.8 µM | – | – | 41.6 µM | – | non-selective, moderate antiproliferative effect | 32.6 µM | –
O=C1O[C@H]([C@@H](O)Cn2ccnn2)C(O)=C1O [Compound 4b, 6-deoxy-6-(1,2,3-triazol-1-yl)-L-ascorbic acid] | > 100 µM | > 100 µM | > 100 µM | > 100 µM | > 100 µM | > 100 µM | 130 µM | 130 µM | > 100 µM | 219 to 221 °C | not cytotoxic | – | > 100 µM

Second part, led by results:

IC50 [2] | IC50 [3] | IC50 [4] | IC50 [5] | IC50 [6] | IC50 [7] | IC50 [9, 11] | IC50 [9, 12] | IC50 [10] | melting point | SMILES | antiproliferative / cytotoxic effect on the tested cell lines (in words) [1] | IC50 [8] | IC50 (WI-38 (lung fibroblasts))
> 100 µM | > 100 µM | > 100 µM | > 100 µM | > 100 µM | > 100 µM | 190 ± 10 µM | 190 ± 10 µM | > 100 µM | – | COc1ccc(-c2cn(C[C@H](O)[C@H]3OC(=O)C(O)=C3O)nn2)cc1 [Compound 4g, 6-deoxy-6-[4-methoxyphenyl-1,2,3-triazol-1-yl]-L-ascorbic acid] | did not show any cytotoxic effects | > 100 µM | > 100 µM
> 100 µM | > 100 µM | > 100 µM | > 100 µM | > 100 µM | > 100 µM | 200 ± 20 µM | 140 ± 10 µM | > 100 µM | 152 to 154 °C | Cc1ccc(-c2cn(C[C@H](O)[C@H]3OC(=O)C(O)=C3O)nn2)cc1 [Compound 4f, 6-deoxy-6-[4-tolyl-1,2,3-triazol-1-yl]-L-ascorbic acid] | did not show any cytotoxic effects | 69.3 µM | > 100 µM
64.8 µM | 39.8 µM | 95.3 µM | 81.7 µM | 92 µM | 56.8 µM | 270 ± 10 µM | 270 µM | 75.8 µM | 189 to 191 °C | O=C1O[C@H]([C@@H](O)Cn2cc(-c3cc(F)cc(F)c3)nn2)C(O)=C1O [Compound 4d, 6-deoxy-6-[4-(3,5-difluorophenyl)-1,2,3-triazol-1-yl]-L-ascorbic acid] | nonspecific cytostatic effect | 0.12 µM | > 100 µM
